Source: patent US20120270812A1, “COMPOSITIONS, METHODS, AND KITS FOR DETERMINING AN ALKYL TRANSFERASE” (Duke University, priority 2009, published 2012)
Like-named read-outs stand apart in the source and are kept apart here.

How the values were obtained:
human AGT = target: T1, human AGT (Homo sapiens, UniProt P16455); assay: Depletion (inactivation) of cellular AGT activity in CHO cells transfected with pCMV-AGT; assay type: cell-based
T1 construct: expressed in transfected cells; host or cells: CHO-K1 cells, geneticin-selected clones, plasmid pCMV-AGT
T1 sequence (P16455 1-207): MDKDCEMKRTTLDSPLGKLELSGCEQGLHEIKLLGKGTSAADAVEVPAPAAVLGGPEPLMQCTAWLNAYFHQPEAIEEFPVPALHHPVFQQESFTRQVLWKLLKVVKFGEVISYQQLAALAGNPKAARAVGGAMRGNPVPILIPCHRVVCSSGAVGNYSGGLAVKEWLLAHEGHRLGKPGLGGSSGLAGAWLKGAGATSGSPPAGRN
Experimental: FIG. 8 is a graph showing depletion of cellular AGT activity by unlabeled 6-(4-fluoro-benzyloxy)-9H-purin-2-ylamine (O^6-4-fluorobenzylguanine (FBG)) and 6-(iodo-benzyloxy)-9H-purin-2-ylamine (O^6-iodobenzylguanine (IBG)). CHO cells transfected with pCMV-AGT were incubated with varying concentrations of IBG (▪) or FBG ([…]) for 4 hours, and the AGT activity associated with the cells was determined. The results are expressed as the percentage of the AGT activity present in cell cultures that were not treated with FBG or IBG.
CHO-K1 cells were maintained in αMEM (Gibco, Grand Island, N.Y.) containing 10% fetal bovine serum. […]
Inactivation of cellular AGT was measured by adding varying concentrations of FBG or IBG to cell cultures that had reached 80-90% confluence. […] AGT activity was measured by assaying the loss of [^3H]—O^6-methylguanine from a [^3H] methylated calf thymus DNA substrate as described by, e.g., Dolan et al., PNAS, 87:5368-5372 (1990). The results are expressed as the percentage of the AGT activity present in cell cultures that were not treated with FBG or IBG. […]
Because IBG is a new compound, its ability to deplete AGT was determined using CHO cells transfected with pCMV-AGT to express AGT. In parallel, the ability of FBG to deplete AGT under the same conditions also was measured. […]

[1] = Stability during reversed-phase chromatography with 0.1% TFA in water; assay type: physicochemical; details: 0.1% TFA in water (pH 2) as a co-solvent
Excerpt: A combination of radio-TLC, and normal-phase and reversed-phase HPLC was used to verify that the final product was indeed IBG and not the 3-iodobenzyl alcohol. Very little if any of 3-iodobenzyl alcohol was detected in the reaction mixture. In addition, the final product bound to AGT specifically (vide infra), which further supports its authenticity. […] This may be due to the lack of water in the reaction mixture or a rate factor may be involved. Both IBG and FBG were stable during reversed-phase chromatography involving 0.1% TFA in water (pH 2) as a co-solvent.

[2] = target: T2, Purified human AGT with a (His)6 tag (Homo sapiens, UniProt P16455); assay: In vitro binding of radiolabeled FBG or IBG to purified AGT (TCA precipitation); details: for maximum observed AGT to BSA binding ratio: 10 μg AGT vs 10 μg BSA (nonspecific protein); for unlabeled compound concentration above which saturation was observed: binding to purified AGT
T2 construct: (His)6
T2 sequence (P16455 1-207): T1 sequence (P16455 1-207)
Experimental: FIG. 9 is a graph showing binding of [^18F] FBG to purified AGT as a function of unlabeled FBG concentration. […] FBG was incubated for 30 minutes at 37° C., in the presence or absence of increasing amounts of unlabeled FBG, with 10 μg of AGT ([…]), or to control for nonspecific binding, 10 μg of BSA (▴) in a Tris-buffer. The protein-associated activity was determined by TCA precipitation.
IBG to purified AGT as a function of unlabeled IBG concentration. […] IBG with AGT ([…]) or BSA (▴).
Purified human AGT with a (His)6 tag was generously provided by Dr. Anthony E. Pegg of Hershey Medical Center, Pennsylvania State University. […] The incubation carried out in 0.1 ml 50 mM Tris-Cl, pH 7.5, 5 mM DTT, 0.1 mM EDTA in the presence of 10 μg calf thymus DNA. […] The precipitated proteins were collected on GF-C (Whatman) filters, which were washed extensively with 5% TCA. The results are expressed as the percentage of input activity retained on the filter. For each concentration, the assay was performed in triplicate.
To investigate whether AGT recognizes radiolabeled FBG and IBG as substrates, the efficacy of transfer of their radiolabeled benzyl groups to AGT was determined using the purified protein. […] The preparation of ^13C-and ^14C-labeled O^6-benzylguanosines has been reported by, e.g., Madelmont et al., J. Lab. Comp.

Nc1nc(OCc2ccc(F)cc2)c2nc[nH]c2n1 [FBG, 6-(4-fluoro-benzyloxy)-9H-purin-2-ylamine, reference compound]
IC50 (human AGT; CHO cells transfected with pCMV-AGT, 4 hours of drug treatment, read-out: IC50 for depleting AGT): 0.05 µM
stability during reversed-phase chromatography [1]: stable
IC50 ([2]; 10 μg AGT, 30 minutes at 37° C., read-out: IC50 (binding to purified AGT as a function of unlabeled compound concentration)): 5 µM

Nc1nc(OCc2cccc([131I])c2)c2nc[nH]c2n1 [[^131I]IBG, 6-(3-[^131I]Iodo-benzyloxy)-9H-purin-2-ylamine]
maximum observed AGT to BSA binding ratio [2]: 35
unlabeled compound concentration above which saturation was observed [2]: higher than 3 μM
percent of radiolabeled compound bound to AGT ([2]; over a wide range of unlabeled IBG concentrations, 10 μg AGT, 30 minutes at 37° C.): About 60%

Nc1nc(OCc2ccc([18F])cc2)c2nc[nH]c2n1 [[^18F]FBG, 6-(4-[^18F]Fluoro-benzyloxy)-9H-purin-2-ylamine]
maximum observed AGT to BSA binding ratio [2]: 661
percent of input activity that bound to AGT, maximum ([2]; at 0.5 μM of unlabeled FBG, 10 μg AGT, 30 minutes at 37° C.): about 90%
unlabeled compound concentration above which saturation was observed [2]: higher than 2 μM

Nc1nc(OCc2cccc(I)c2)c2[nH]cnc2n1 [IBG, 6-(3-Iodo-benzyloxy)-9H-purin-2-ylamine]
IC50 (human AGT): 0.015 µM
stability during reversed-phase chromatography [1]: stable
IC50 [2]: ~6 µM
